# According to patent US8546404B2, “Compounds that are ERK inhibitors” (Merck Sharp & Dohme, priority 2005, dated 2013):
# Where “and” joins values, the source holds several entries; their conditions need not be identical. Equal entries are not always repeated.
# Tested on: not listed separately
# Assay: Cassette Accelerating Rapid Rat Screen (CARRS), AUC during the first 6 hours
# Assay type: in vivo, Male Sprague-Dawley rats
# Conditions: male, Sprague-Dawley, plasma, 10 mg/kg, PO, AUC during the first 6 hours (AUC6hr)
# Method: The AUC (Area Under the Concentration-Time Curve During the First 6 Hours (AUC6hr) in Table 30 Below was Determined Using the Protocol of Cassette Accelerating Rapid Rat Screen (CARRS)
# Animal Dosing and Sample Collection
# Male Sprague-Dawley rats (Charles River, Co.) were pre-cannulated (femoral artery) in order to facilitate precise blood sampling times, and to reduce the stress on the animals caused by serial bleedings. Following an overnight fast, two rats were dosed orally with one compound at a dose of 10 mg/kg in a 5-mL/kg dose volume. Blood was collected into heparin-containing tubes serially from each animal at 0.5, 1, 2, 3, 4 and 6 h post-dosing and centrifuged to generate plasma. Approximately 100 μL of plasma were collected at the individual time points. The plasma samples were stored at −20° C. until analysis.
# Plasma Sample and Standard Curve Preparation
# A set of 12 rat plasma samples was generated for each NCE (i.e. 6 timepoints and n=2 rats). These 12 samples were pooled across the two rats at each timepoint to provide 6 pooled samples (one sample per time point) for each NCE. The pooled samples were assayed as cassettes of six (36 samples total) to provide data on the six compounds. The 50-μL aliquots of the 36 plasma samples were placed into individual wells of a 96-well plate. An additional compound (often a structural analog of the test compounds) was selected as the internal standard. A mini-calibration curve was prepared (three points plus a zero) for each compound assayed. Drug-free rat plasma was measured into 1-mL aliquots and each aliquot was spiked with known concentrations of the compounds to generate standards of the desired concentrations. The concentrations of the standards were chosen to bracket the expected concentration of the pooled samples based on historical data from previous studies on other compounds. For this work, the standards were set to contain concentrations of 25, 250 and 2500 ng NCE/mL plasma. The plasma standards were precipitated in duplicate along with the samples. Protein precipitation occurred after addition of 150 μL of acetonitrile containing the internal standard at a concentration of 1 ng/mL into each sample well using the Tomtec Quadra 96 system. The precipitated samples and standards were vortexed and centrifuged in the 96-well plate. Approximately 50-100 μL of the supernatant were removed and placed into a fresh 96-well plate using the Tomtec Quadra 96 system. A volume of 5-10 μL of the supernatant was used for analysis by HPLC-MS/MS. The mini-standard curve was run in duplicate, once before and once after the samples. Thus, a total of 14 study samples plus standards were analyzed per compound. In addition, solvent blanks were injected before and after each set of 14 and after the highest calibration standard for each compound; therefore, a total of 103 injections were made into each HPLC system for each set of six compounds. Multiple solvent blank injections could be made from a single well. Twelve solvent blank wells were designated in each 96-well plate. Thus, one batch (cassette) of six NCEs was prepared and assayed using one 96-well plate format.
# All the compounds were analyzed using selected reaction monitoring (SRM) methods with LC/MS/MS instruments. Once the method development had been completed, the assay was quickly set up using a standard injection sequence template for the CARRS assay.
row,AUC [µM·h],Compound
1,25.9,CS[C@@]1(C(=O)Nc2ccc3[nH]nc(-c4ccc(F)cc4)c3c2)CCN(CC(=O)N2CC=C(c3ccc(-c4ncccn4)cc3)CC2)C1 [Example 613]
2,7.22,"COC[C@@]1(C(=O)Nc2ccc3[nH]nc(-c4ccnc(C5CC5)c4)c3c2)CCN(CC(=O)N2CC=C(c3ccc(-c4ncccn4)cc3)CC2)C1 [Example 336, 3-Methoxymethyl-1-{2-[4-(4-pyrimidin-2-yl-phenyl)-3,6-dihydro-2H-pyridin-1-yl]-acetyl}-pyrrolidine-3-carboxylic acid [3-(2-cyclopropyl-pyridin-4-yl)-1H-indazol-5-yl]-amide]"

# Biological target: fully phosphorylated, active Mouse ERK2 protein (Mus musculus (Mouse), UniProt P63085)
# Sequence (P63085 whole entry): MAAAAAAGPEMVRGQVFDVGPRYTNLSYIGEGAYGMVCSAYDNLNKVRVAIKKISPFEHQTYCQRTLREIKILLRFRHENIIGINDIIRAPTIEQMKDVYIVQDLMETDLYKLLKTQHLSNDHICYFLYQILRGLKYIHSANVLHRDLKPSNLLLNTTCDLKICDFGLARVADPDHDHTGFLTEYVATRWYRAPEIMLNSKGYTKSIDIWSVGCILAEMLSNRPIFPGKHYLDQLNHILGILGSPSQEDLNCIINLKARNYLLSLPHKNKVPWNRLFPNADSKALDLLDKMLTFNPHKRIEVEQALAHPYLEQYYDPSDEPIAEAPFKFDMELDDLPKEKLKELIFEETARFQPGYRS
# Assay: Active ERK2 Assay (IMAP format)
# Assay type: biochemical
# Conditions: read-out: AERK2 IC50
# Method: Activated ERK2 activity was also determined in the IMAP assay format using the procedure outlined above. […] Reactions proceeded for 30 minutes before termination by addition of 60 μl IMAP detection beads in binding buffer. Plates were read as above after 30 minute binding equilibration.
row,Compound,IC50
1,O=C(Nc1ccc2[nH]nc(-c3ccc(F)cc3)c2c1)[C@@H]1CCN(CC(=O)N2C[C@@H]3C[C@H]2CN3c2ccc(-c3ncccn3)cc2)C1 [Example 184],0.16 to 18 nM and 0.16 to 1.5 nM
2,CO[C@@]1(C(=O)Nc2ccc3[nH]nc(-c4cn[nH]c4)c3c2)CCN(CC(=O)N2CC=C(c3ccc(-c4ncccn4)cc3)CC2)C1 [Example 796],0.16 to 18 nM
3,"N#Cc1cccc(-c2n[nH]c3ccc(NC(=O)[C@@H]4CCN(CC(=O)N5CCN(c6ccc(-c7ncccn7)cc6)CC5)C4)cc23)c1 [Example 2, 1-{2-Oxo-2-[4-(4-pyrimidin-2-yl-phenyl)-piperazin-1-yl]-ethyl}-pyrrolidine-3-carboxylic acid[3-(3-cyano-phenyl)-1H-indazol-5-yl]-amide]",0.16 to 18 nM
4,"O=C(Nc1ccc2[nH]nc(-c3c[nH]cn3)c2c1)[C@@H]1CCN(CC(=O)N2CCN(c3ccc(-c4ncccn4)cc3)CC2)C1 (stereo in doubt) [Example 61, 1-{2-Oxo-2-[4-(4-pyrimidin-2-yl-phenyl)-piperazin-1-yl]-ethyl}-pyrrolidine-3-carboxylic acid [3-(1H-imidazol-4-yl)-1H-indazol-5-yl]-amide]",0.16 to 18 nM
5,"CC(C)(C)OC(=O)N1CCC(O)(c2nccs2)CC1 [Example 132, 4-Hydroxy-4-thiazol-2-yl-piperidine-1-carboxylic acid tert-butyl ester]",0.16 to 18 nM
6,CS(=O)(=O)[C@@]1(C(=O)Nc2ccc3[nH]nc(-c4ccnc(C5CC5)c4)c3c2)CCN(CC(=O)N2CC=C(c3ccc(-c4ncccn4)cc3)CC2)C1 [Example 634],0.16 to 18 nM
7,CO[C@@]1(C(=O)Nc2ccc3[nH]nc(-c4cc[n+]([O-])c(C5CC5)c4)c3c2)CCN(CC(=O)N2CCC(c3ccc(-c4ncccn4)cc3)CC2)C1 [Example 669],0.16 to 18 nM
8,O=C(Nc1ccc2[nH]nc(-c3ccc(F)cc3)c2c1)C1CCN(CC(=O)N2CCN(c3ccc(-c4ncccn4)cn3)CC2)C1 (stereo not drawn) [Example 98],0.16 to 18 nM
9,CO[C@@]1(C(=O)Nc2ccc3[nH]nc(-c4ccc(N(C)C)cc4)c3c2)CCN(CC(=O)N2CCC(c3ccc(-c4ncccn4)cc3)CC2)C1 [Example 793],0.16 to 18 nM
10,C=CCC1(C(=O)Nc2ccc3[nH]nc(-c4ccncc4)c3c2)CCN(CC(=O)N2CCN(c3ccc(-c4ncccn4)cc3)CC2)C1 (stereo not drawn) [Example 289],0.16 to 18 nM
11,CNC(=O)c1n[nH]c2ccc(NC(=O)[C@@H]3CCN(CC(=O)N4C[C@@H]5C[C@H]4CN5c4ccc(-c5ncc(C)cn5)cc4)C3)cc12 [Example 154],0.16 to 18 nM
12,"COCC1(C(=O)Nc2ccc3[nH]nc(-c4ccc(F)cc4)c3c2)CCN(CC(=O)N2CCN(c3ccc(-c4ncccn4)cc3)CC2)C1 (stereo not drawn) [Example 125, 3-methoxymethyl-1-{2-oxo-2-[4-(4-pyrimidin-2-yl-phenyl)-piperazin-1-yl]-ethyl}-pyrrolidine-3-carboxylic acid [3-(4-fluoro-phenyl)-1H-indazol-5-yl]-amide]",0.16 to 18 nM
13,COCCOc1ccc(-c2n[nH]c3ccc(NC(=O)[C@]4(OC)CCN(CC(=O)N5CC=C(c6ncc(-c7ncccn7)cc6F)CC5)C4)cc23)cc1 [Example 738],0.16 to 18 nM
14,CO[C@@]1(C(=O)Nc2ccc3[nH]nc(-c4ccc(F)c(NCCO)c4)c3c2)CCN(CC(=O)N2CC=C(c3ccc(-c4ncccn4)cc3)CC2)C1 [Example 757],0.16 to 18 nM
15,CO[C@@]1(C(=O)Nc2ccc3[nH]nc(-c4ccc(F)c(F)c4)c3c2)CCN(CC(=O)N2CCC(c3ccc(-c4ncccn4)cc3)CC2)C1 [Example 792],0.16 to 18 nM
16,CO[C@@]1(C(=O)Nc2ccc3[nH]nc(-c4ccc(OCCO)cc4)c3c2)CCN(CC(=O)N2CC=C(c3ccc(-c4ncccn4)cc3)CC2)C1 [Example 822],0.16 to 18 nM
17,O=C(CN1CCC(CN2CCOCC2)(C(=O)Nc2ccc3[nH]nc(-c4ccncc4)c3c2)C1)N1CCN(c2nccs2)CC1 (stereo not drawn) [Example 286],0.16 to 18 nM
18,CO[C@@]1(C(=O)Nc2ccc3[nH]nc(-c4ccc(F)cc4)c3c2)CCN(CC(=O)N2CC=C(c3ncc(-c4ncccn4)s3)CC2)C1 [Example 776],0.16 to 18 nM
19,"CNC(=O)c1n[nH]c2ccc(NC(=O)C3CCN(CC(=O)N4CCC(C#Cc5ncccn5)CC4)C3)cc12 (stereo not drawn) [Example 142, 5-({1-[2-oxo-2-(4-pyrimidin-2-ylethynyl-piperidin-1-yl)-ethyl]-pyrrolidine-3-carbonyl}-amino)-1H-indazole-3-carboxylic acid methylamide]",0.16 to 18 nM

# Other lines, results leading:
row,IC50,Compound
1,10 nM,CS[C@@]1(C(=O)Nc2ccc3[nH]nc(-c4ccc(F)cc4)c3c2)CCN(CC(=O)N2CC=C(c3ccc(-c4ncccn4)cc3)CC2)C1 [Example 613]
2,0.16 to 18 nM,COCCOc1ccc(-c2n[nH]c3ccc(NC(=O)[C@]4(OC)CCN(CC(=O)N5CCC(c6ccc(-c7ncccn7)cc6)CC5)C4)cc23)cc1 [Example 764]
3,0.16 to 18 nM,CO[C@@]1(C(=O)Nc2ccc3[nH]nc(-c4ccc(F)cc4)c3c2)CCN(CC(=O)N2CC=C(c3ccc(-c4ncc(N)cn4)cc3)CC2)C1 [Example 823]
4,0.16 to 18 nM,CO[C@@]1(C(=O)Nc2ccc3[nH]nc(C4CCOCC4)c3c2)CCN(CC(=O)N2CC=C(c3ccc(-c4ncccn4)cc3)CC2)C1 [Example 779]
5,0.16 to 18 nM,CS[C@@]1(C(=O)Nc2ccc3[nH]nc(-c4ccc(F)cc4)c3c2)CCN(CC(=O)N2CCN(c3ccc(-c4ncccn4)cn3)C[C@H]2C)C1 [Example 641]
6,0.16 to 18 nM,CO[C@@]1(C(=O)Nc2ccc3[nH]nc(-c4ccnc(C5CC5)c4)c3c2)CCN(CC(=O)N2CCC(C)(c3ccc(-c4ncccn4)cc3)CC2)C1 [Example 680]
7,0.16 to 18 nM,CO[C@@]1(C(=O)Nc2ccc3[nH]nc(-c4ccnc(C(F)(F)F)c4)c3c2)CCN(CC(=O)N2CCC(c3ccc(-c4ncccn4)cc3)CC2)C1 [Example 788]
8,0.16 to 18 nM,CO[C@@]1(C(=O)Nc2ccc3[nH]nc(-c4ccc(NCCO)cc4)c3c2)CCN(CC(=O)N2CC=C(c3ccc(-c4ncccn4)cc3)CC2)C1 [Example 758]
9,0.16 to 18 nM,COCC1(C(=O)Nc2ccc3[nH]nc(-c4ccncc4)c3c2)CCN(CC(=O)N2CC=C(c3nccs3)CC2)C1 (stereo not drawn) [Example 306]
10,0.16 to 18 nM,CO[C@@]1(C(=O)Nc2ccc3[nH]nc(-c4ccnc(C(F)F)c4)c3c2)CCN(CC(=O)N2CC=C(c3ccc(-c4ncccn4)cc3)CC2)C1 [Example 785]
11,0.16 to 18 nM,CO[C@@]1(C(=O)Nc2ccc3[nH]nc(-c4ccnc(C5CC5)c4)c3c2)CCN(CC(=O)N2CC=C(c3ncc(-c4ncccn4)s3)CC2)C1 [Example 777]
12,0.16 to 18 nM,CNC(=O)c1n[nH]c2ccc(NC(=O)[C@@H]3CCN(CC(=O)N4CCC(c5ccc(-c6ncccn6)cc5)CC4)C3)cc12 [Example 176]
13,0.16 to 18 nM,CO[C@@]1(C(=O)Nc2ccc3[nH]nc(-c4ccnc(C(F)F)c4)c3c2)CCN(CC(=O)N2CCC(C)(c3ccc(-c4ncccn4)cc3)CC2)C1 [Example 679]
14,0.16 to 18 nM,O=C(Nc1ccc2[nH]nc(-c3ccncc3)c2c1)[C@@H]1CCN(CC(=O)N2CCc3ccccc3C2)C1 [Example 332]
15,0.16 to 18 nM,CS[C@@]1(C(=O)Nc2ccc3[nH]nc(-c4ccnc(C5CC5)c4)c3c2)CCN(CC(=O)N2CC=C(c3ccc(-c4ncccn4)cc3F)CC2)C1 [Example 651]
16,0.16 to 18 nM,CO[C@@]1(C(=O)Nc2ccc3[nH]nc(-c4ccc5c(c4)OCO5)c3c2)CCN(CC(=O)N2CCN(c3ccc(-c4ncccn4)cn3)C[C@H]2C)C1 [Example 799]
17,0.16 to 18 nM,CCCC1(C(=O)Nc2ccc3[nH]nc(-c4ccncc4)c3c2)CCN(CC(=O)N2CCN(c3ccc(-c4ncccn4)cc3)CC2)C1 (stereo not drawn) [Example 290]
18,0.16 to 18 nM,O=C(CN1CCC(CF)(C(=O)Nc2ccc3[nH]nc(-c4ccncc4)c3c2)C1)N1C[C@@H]2C[C@H]1CN2c1ccc(-c2ncccn2)cc1 (stereo partly drawn) [Example 269]
